Source: patent publication US6083977A, “Trienoic retinoid compounds and methods” (Ligand Pharmaceuticals Incorporated, priority 1995, dated 2000)
pEC50, pIC50: −log10 of the molar value.

What was measured:
RARγ = biological target: T1, RARγ (Homo sapiens, UniProt P13631); assay: Co-transfection assay (CV-1 cells), RARγ agonist activity; format: cell-based
T1 construct: expressed in transfected cells; host or cells: CV-1 (African green monkey kidney fibroblasts)
T1 sequence (P13631 1-454): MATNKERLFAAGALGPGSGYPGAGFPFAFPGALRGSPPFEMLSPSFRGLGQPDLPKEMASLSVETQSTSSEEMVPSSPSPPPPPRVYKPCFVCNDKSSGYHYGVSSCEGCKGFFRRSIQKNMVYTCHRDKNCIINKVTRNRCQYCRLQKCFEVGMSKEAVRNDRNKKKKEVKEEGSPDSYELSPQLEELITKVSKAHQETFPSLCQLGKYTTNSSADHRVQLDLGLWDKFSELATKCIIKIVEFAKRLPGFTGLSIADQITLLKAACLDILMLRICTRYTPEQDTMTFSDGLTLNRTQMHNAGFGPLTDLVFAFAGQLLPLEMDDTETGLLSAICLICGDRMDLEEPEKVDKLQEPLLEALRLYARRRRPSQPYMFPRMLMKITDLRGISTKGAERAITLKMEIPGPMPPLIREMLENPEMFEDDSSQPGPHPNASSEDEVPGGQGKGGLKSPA

RARs = assay: Co-transfection assay, RAR subfamily; format: cell-based, human
Method: (§1) Utilizing the "cis-trans" or "co-transfection" assay described by Evans et al., Science, 240:889-95 (May 13, 1988), the disclosure of which is herein incorporated by reference, the retinoid compounds of the present invention were tested and found to have strong, specific activity as either selective RAR agonists, selective RXR agonists, or as pan-agonist activators of both RAR and RXR receptors. This assay is described in further detail in U.S. Pat. Nos. 4,981,784 and 5,071,773, the disclosures of which are incorporated herein by reference.
(§2) The co-transfection assay provides a method for identifying functional agonists which mimic, or antagonists which inhibit, the effect of native hormones, and quantifying their activity for responsive IR proteins. In this regard, the co-transfection assay mimics an in vivo system in the laboratory. Importantly, activity in the co-transfection assay correlates very well with known in vivo activity, such that the co-transfection assay functions as a qualitative and quantitative predictor of a tested compounds in vivo pharmacology. See, e.g., T. Berger et al. 41 J. Steroid Biochem. Molec. Biol. 773 (1992), the disclosure of which is herein incorporated by reference.
In the co-transfection assay, a cloned cDNA for an IR (e.g., human RARα, RARβ, RXRγ) under the control of a constitutive promoter (e.g., the SV 40 promoter) is introduced by transfection (a procedure to induce cells to take up foreign genes) into a background cell substantially devoid of endogenous IRs. This introduced gene directs the recipient cells to make the IR protein of interest. A second gene is also introduced (co-transfected) into the same cells in conjunction with the IR gene. This second gene, comprising the cDNA for a reporter protein, such as firefly luciferase (LUC), is controlled by an appropriate hormone responsive promoter containing a hormone response element (HRE). This reporter plasmid functions as a reporter for the transcription-modulating activity of the target IR. Thus, the reporter acts as a surrogate for the products (mRNA then protein) normally expressed by a gene under control of the target receptor and its native hormone.
The co-transfection assay can detect small molecule agonists or antagonists of target IRs. Exposing the transfected cells to an agonist ligand compound increases reporter activity in the transfected cells. This activity can be conveniently measured, e.g., by increasing luciferase production, which reflects compound-dependent, IR-mediated increases in reporter transcription. […] . Increasing concentrations of a suspected antagonist will decrease the reporter signal (e.g., luciferase production). The co-transfection assay is therefore useful to detect both agonists and antagonists of specific IRs. Furthermore, it determines not only whether a compound interacts with a particular IR, but whether this interaction mimics (agonizes) or blocks (antagonizes) the effects of the native regulatory molecules on target gene expression, as well as the specificity and strength of this interaction. […]

RAR and RXR receptors = assay: Binding to the RAR and RXR receptors; details: relative to ATRA (RAR) and 9-cis (RXR)
AML-193 = assay: Incorporation of 3H-thymidine, AML-193; details: 96 h, read-out: TdR IC50 (50% inhibition of maximally observed thymidine incorporation)
RXR = assay: Co-transfection assay, RXR subfamily; format: cell-based
Method: as §1
as §2, with “Biol. 773 (1992), the disclosure of which is herein incorporated by reference.” left out
The co-transfection assay can detect small molecule agonists or antagonists of target IRs. […] This activity can be conveniently measured, e.g., by increasing luciferase production, which reflects compound-dependent, IR-mediated increases in reporter transcription. […]

RARα = biological target: T2, RARα (Homo sapiens, UniProt P10276); assay: Co-transfection assay (CV-1 cells), RARα agonist activity; format: cell-based; details: read-out: RARα Pot (potency, EC50)
T2 construct: expressed in transfected cells; host or cells: CV-1 (African green monkey kidney fibroblasts)
T2 sequence (P10276 1-462): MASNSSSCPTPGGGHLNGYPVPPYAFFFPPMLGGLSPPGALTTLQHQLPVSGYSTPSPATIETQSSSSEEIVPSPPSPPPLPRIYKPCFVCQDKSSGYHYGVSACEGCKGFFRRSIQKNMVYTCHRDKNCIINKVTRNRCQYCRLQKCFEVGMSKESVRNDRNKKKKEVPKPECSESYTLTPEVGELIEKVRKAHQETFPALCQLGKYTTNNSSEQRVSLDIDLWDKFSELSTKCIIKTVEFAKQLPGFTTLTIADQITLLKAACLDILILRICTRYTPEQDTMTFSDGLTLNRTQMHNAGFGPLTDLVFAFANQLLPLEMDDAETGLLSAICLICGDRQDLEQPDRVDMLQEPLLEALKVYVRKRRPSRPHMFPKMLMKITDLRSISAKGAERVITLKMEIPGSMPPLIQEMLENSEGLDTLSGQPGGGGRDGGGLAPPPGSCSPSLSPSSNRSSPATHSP

RARβ = biological target: T3, RARβ (Homo sapiens, UniProt P10826); assay: Co-transfection assay (CV-1 cells), RARβ agonist activity; format: cell-based; details: read-out: RARβ Pot (potency, EC50)
T3 construct: expressed in transfected cells; host or cells: CV-1 (African green monkey kidney fibroblasts)
T3 sequence (P10826 1-448 isoform P10826-2): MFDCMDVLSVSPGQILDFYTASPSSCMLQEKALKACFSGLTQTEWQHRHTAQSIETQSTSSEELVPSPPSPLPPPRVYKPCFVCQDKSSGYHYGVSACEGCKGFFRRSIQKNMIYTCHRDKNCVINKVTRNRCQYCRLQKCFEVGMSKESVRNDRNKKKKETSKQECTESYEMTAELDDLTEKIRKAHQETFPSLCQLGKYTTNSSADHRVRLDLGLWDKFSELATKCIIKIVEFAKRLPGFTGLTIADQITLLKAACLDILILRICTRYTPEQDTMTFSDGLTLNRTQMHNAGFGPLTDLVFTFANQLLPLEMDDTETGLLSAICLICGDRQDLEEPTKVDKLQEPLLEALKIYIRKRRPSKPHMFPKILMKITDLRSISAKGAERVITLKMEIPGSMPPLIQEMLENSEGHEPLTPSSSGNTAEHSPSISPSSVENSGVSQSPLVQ

RXRα = biological target: T4, RXRα (Homo sapiens, UniProt P19793); assay: Co-transfection assay (CV-1 cells), RXRα agonist activity; format: cell-based; details: read-out: RXRα Pot (potency, EC50)
T4 construct: expressed in transfected cells; host or cells: CV-1 (African green monkey kidney fibroblasts)
T4 sequence (P19793 1-462): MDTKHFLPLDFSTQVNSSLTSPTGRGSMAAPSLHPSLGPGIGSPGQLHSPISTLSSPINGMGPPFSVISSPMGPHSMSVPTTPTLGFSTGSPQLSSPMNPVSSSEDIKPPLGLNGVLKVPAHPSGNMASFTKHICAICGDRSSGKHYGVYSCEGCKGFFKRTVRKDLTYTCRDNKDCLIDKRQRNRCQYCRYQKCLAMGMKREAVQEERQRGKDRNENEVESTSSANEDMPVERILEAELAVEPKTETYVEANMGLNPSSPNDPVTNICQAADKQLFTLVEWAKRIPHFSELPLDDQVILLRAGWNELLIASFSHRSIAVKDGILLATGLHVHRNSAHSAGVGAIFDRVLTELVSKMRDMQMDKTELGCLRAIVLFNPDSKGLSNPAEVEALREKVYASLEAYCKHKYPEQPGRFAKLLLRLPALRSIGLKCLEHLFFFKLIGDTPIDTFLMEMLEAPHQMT

RXRβ = biological target: T5, RXRβ (Mus musculus, UniProt P28704); assay: Co-transfection assay (CV-1 cells), RXRβ agonist activity; format: cell-based; details: read-out: RXRβ Pot (potency, EC50)
T5 construct: expressed in transfected cells; host or cells: CV-1 (African green monkey kidney fibroblasts)
T5 sequence (P28704 1-520): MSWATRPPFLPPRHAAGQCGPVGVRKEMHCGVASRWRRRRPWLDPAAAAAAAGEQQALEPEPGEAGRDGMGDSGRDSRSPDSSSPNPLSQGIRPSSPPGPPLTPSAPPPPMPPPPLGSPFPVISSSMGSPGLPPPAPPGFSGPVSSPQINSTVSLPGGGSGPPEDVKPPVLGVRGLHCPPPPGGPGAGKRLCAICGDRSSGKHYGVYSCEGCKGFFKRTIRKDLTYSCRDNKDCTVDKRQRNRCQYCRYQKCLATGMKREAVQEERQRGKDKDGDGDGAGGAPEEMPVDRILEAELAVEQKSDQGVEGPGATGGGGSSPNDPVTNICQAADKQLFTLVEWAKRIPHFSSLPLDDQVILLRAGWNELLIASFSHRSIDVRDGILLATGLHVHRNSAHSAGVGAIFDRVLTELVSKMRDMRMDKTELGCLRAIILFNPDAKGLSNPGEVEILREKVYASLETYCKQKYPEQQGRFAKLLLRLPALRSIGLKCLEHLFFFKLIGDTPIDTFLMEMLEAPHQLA

RXRγ = biological target: T6, RXRγ (Mus musculus, UniProt P28705); assay: Co-transfection assay (CV-1 cells), RXRγ agonist activity; format: cell-based; details: read-out: RXRγ Pot (potency, EC50)
T6 construct: expressed in transfected cells; host or cells: CV-1 (African green monkey kidney fibroblasts)
T6 sequence (P28705 1-463): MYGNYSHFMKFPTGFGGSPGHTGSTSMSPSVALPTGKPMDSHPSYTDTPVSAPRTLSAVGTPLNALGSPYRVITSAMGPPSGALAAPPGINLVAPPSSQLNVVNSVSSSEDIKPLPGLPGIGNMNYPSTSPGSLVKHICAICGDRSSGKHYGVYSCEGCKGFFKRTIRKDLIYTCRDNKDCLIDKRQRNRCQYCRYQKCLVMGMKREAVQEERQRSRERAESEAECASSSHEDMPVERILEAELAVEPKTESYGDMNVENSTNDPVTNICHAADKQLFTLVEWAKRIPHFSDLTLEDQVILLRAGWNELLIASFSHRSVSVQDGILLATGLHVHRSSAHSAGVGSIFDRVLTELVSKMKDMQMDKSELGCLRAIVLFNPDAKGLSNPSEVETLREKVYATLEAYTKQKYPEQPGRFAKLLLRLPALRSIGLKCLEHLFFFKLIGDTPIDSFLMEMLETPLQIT

CC(/C=C/C=C(\C)c1cc(C(C)(C)C)cc(C(C)(C)C)c1)=C\C(=O)O [Compound 9, (2E, 4E, 6E)-7-(3,5-Di-t-butylphenyl)-3-methylocta-2,4,6-trienoic acid]
activity on RARγ (in words) (RARγ): sub-nanomolar activity | RAR activity (in words) (RARs): extremely potent RAR active compounds | binding compared to ATRA and 9-cis (in words) (RAR and RXR receptors): equal or superior binding | pIC50 (AML-193): 10.00

CCC/C(=C/C=C/C(C)=C/C(=O)O)c1cc(C(C)(C)C)cc(C(C)(C)C)c1 [Compound 28, (2E. 4E 6Z)-7-(3,5-Di-t-butylphenyl)-3-methyldeca-2,4,6-trienoic acid]
RXR activity (in words) (RXR): very potent and selective RXR active compound

CCCC(O)c1cc(C(C)(C)C)cc(C(C)(C)C)c1 (centres unmarked) [Compound 19, 1-(3,5-Di-t-butylphenyl)butan-1-ol]
pEC50 (RARα): 7.23 | pEC50 (RARβ): 7.64 | pEC50 (RARγ; co-transfection assay, CV-1 cells, read-out: RARγ Pot (potency, EC50)): 7.80 | pEC50 (RXRα): 6.90 | pEC50 (RXRβ): 7.32 | pEC50 (RXRγ): 7.25
